Test results taken from article PMC7048192, “7-Acylamino-3H-1,2-benzoxathiepine 2,2-dioxides as new isoform-selective carbonic anhydrase IX and XII inhibitors” (Journal of Enzyme Inhibition and Medicinal Chemistry, 2020).

Experiments:
Test in all cases: stopped-flow CO2 hydrase assay
Assay type in all cases: biochemical
[1] = target: T1, hCA XII (Homo sapiens, UniProt O43570); details: read-out: KI (nM)^a,b / hCA XII
T1 construct: gene CA12; recombinant, obtained in-house
From the text: stopped-flow CO2 hydrase assay on hCA XII

[2] = target: T2, hCA IX (Homo sapiens, UniProt Q16790); details: read-out: KI (nM)^a,b / hCA IX
T2 construct: gene CA9; recombinant, obtained in-house
From the text: stopped-flow CO2 hydrase assay on hCA IX

[3] = target: T3, hCA II (Homo sapiens, UniProt P00918); details: read-out: KI (nM)^a,b / hCA I
T3 construct: gene CA2; recombinant, obtained in-house

[4] = target: T4, hCA I (Homo sapiens, UniProt P00915); details: read-out: KI (nM)^a,b / hCA I
T4 construct: gene CA1; recombinant, obtained in-house
T4 sequence (P00915 2-261): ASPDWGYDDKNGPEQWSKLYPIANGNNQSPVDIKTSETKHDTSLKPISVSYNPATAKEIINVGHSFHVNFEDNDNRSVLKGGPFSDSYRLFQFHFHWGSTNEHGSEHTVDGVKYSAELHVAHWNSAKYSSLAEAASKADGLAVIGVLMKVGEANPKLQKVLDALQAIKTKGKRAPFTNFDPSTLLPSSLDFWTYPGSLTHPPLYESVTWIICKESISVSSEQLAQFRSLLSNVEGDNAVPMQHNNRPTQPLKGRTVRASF
From the text: stopped-flow CO2 hydrase assay on hCA I

T1 sequence (O43570 25-354): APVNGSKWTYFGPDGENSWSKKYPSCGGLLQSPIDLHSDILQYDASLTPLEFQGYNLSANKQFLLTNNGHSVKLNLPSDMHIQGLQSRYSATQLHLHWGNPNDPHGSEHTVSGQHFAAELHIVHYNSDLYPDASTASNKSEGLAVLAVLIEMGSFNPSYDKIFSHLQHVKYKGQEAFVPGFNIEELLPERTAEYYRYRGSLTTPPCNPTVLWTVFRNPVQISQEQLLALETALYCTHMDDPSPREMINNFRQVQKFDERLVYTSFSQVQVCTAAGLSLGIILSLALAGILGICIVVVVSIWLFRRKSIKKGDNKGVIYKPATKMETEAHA

| Ki [1] [nM] | Ki [2] [nM] | Ki [3] [nM] | Ki [4] [nM] | SMILES |
| --- | --- | --- | --- | --- |
| 8.7 | 19.7 | > 100000 | > 100000 | O=C(Nc1ccc2c(c1)C=CCS(=O)(=O)O2)c1ccccc1C(F)(F)F [compound 15, N-(2,2-Dioxido-3H-1,2-benzoxathiepin-7-yl)-2-(trifluoromethyl)benzamide] |
| 134 | 210 | > 100000 | > 100000 | O=C(Nc1ccc2c(c1)C=CCS(=O)(=O)O2)c1ccco1 [compound 17, N-(2,2-Dioxido-3H-1,2-benzoxathiepin-7-yl)furan-2-carboxamide] |
| 73.2 | 178 | > 100000 | > 100000 | O=C(Nc1ccc2c(c1)C=CCS(=O)(=O)O2)c1cccs1 [compound 16, N-(2,2-Dioxido-3H-1,2-benzoxathiepin-7-yl)thiophene-2-carboxamide] |

Further lines, the compound ahead of its results:

| SMILES | Ki [1] [nM] | Ki [2] [nM] | Ki [3] [nM] | Ki [4] [nM] |
| --- | --- | --- | --- | --- |
| Cc1ccc(C(=O)Nc2ccc3c(c2)C=CCS(=O)(=O)O3)cc1 [compound 10, N-(2,2-Dioxido-3H-1,2-benzoxathiepin-7-yl)-4-methy benzamide] | 309 | 83 | > 100000 | > 100000 |
| O=C(Nc1ccc2c(c1)C=CCS(=O)(=O)O2)c1ccccc1F [compound 14, N-(2,2-Dioxido-3H-1,2-benzoxathiepin-7-yl)-2-fluorobenzamide] | 40.3 | 74.6 | > 100000 | > 100000 |
| O=C(Nc1ccc2c(c1)C=CCS(=O)(=O)O2)c1ccccc1 [compound 9, N-(2,2-Dioxido-3H-1,2-benzoxathiepin-7-yl)benzamide] | 370 | 209 | > 100000 | > 100000 |
| O=C(Nc1ccc2c(c1)C=CCS(=O)(=O)O2)c1ccccc1Br [compound 13, N-(2,2-Dioxido-3H-1,2-benzoxathiepin-7-yl)-2-bromobenzamide] | 96.2 | 66.8 | > 100000 | > 100000 |
| CC(=O)Nc1ccc2c(c1)C=CCS(=O)(=O)O2 [compound 8, N-(2,2-Dioxido-3H-1,2-benzoxathiepin-7-yl)acetamide] | 162 | 61.8 | > 100000 | > 100000 |
| O=C(Nc1ccc2c(c1)C=CCS(=O)(=O)O2)c1ccccc1I [compound 12, N-(2,2-Dioxido-3H-1,2-benzoxathiepin-7-yl)-2-iodobenzamide] | 644 | 45.4 | > 100000 | > 100000 |
| O=C(Nc1ccc2c(c1)C=CCS(=O)(=O)O2)c1ccc(Br)cc1 [compound 11, N-(2,2-Dioxido-3H-1,2-benzoxathiepin-7-yl)4-bromobenzamide] | 141 | 353 | > 100000 | > 100000 |
